Results on 40 molecules are retold here after patent EP2818472A1, “Imidazo[4,5-c]pyridine and pyrrolo[3,2-c]pyridine compounds as G-protein-coupled receptor kinase 5 (GRK5) modulators” (Max-Planck-Gesellschaft zur Förderung der Wissenschaften …, priority 2013, dated 2014).

One assay has as its system beta-TC6 cells. Description: Insulin HTRF assay (relative activity Ar) in beta-TC6 cells. Format: cell-based, mouse. To be noted: Mus musculus, Beta-TC6, 4 h, insulin HTRF, supernatant of beta-TC6 cells, incubation with test compound at 37°C for 2, 3, 4h; read-out: Ar (relative activity). In short, it runs like this:
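beta-TC6 cells (15k/well, seeded 24 or 48 h) washed, then exposed to compound in induction buffer (0.5% DMSO final) for 2, 3 or 4 h at 37°C.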
As to `Cn1cc(-c2cc3cnc(Nc4cccc(F)c4)cc3n2C)cn1` [Compound 151, N-(3-fluorophenyl)-1-methyl-2-(1-methylpyrazol-4-yl)pyrrolo[3,2-c]pyridin-6-amine], the Emax is 50 to 100%. On the same count and under the same terms, with `CN(C)C(=O)c1ccc(-c2cc3cnc(Nc4ccccn4)cc3n2C)cc1` [Compound 51, N,N-dimethyl-4-[1-methyl-6-(2-pyridylamino)pyrrolo[3,2-c]pyridin-2-yl]benzamide] the figure was 30 to 50%; with `CS(=O)(=O)c1cccc(Nc2nccc3[nH]c(-c4ccc5c(c4)OCCO5)nc23)c1` [Compound 417, 2-(2,3-dihydro-1,4-benzodioxin-6-yl)-N-(3-methylsulfonylphenyl)-1H-imidazo[4,5-c]pyridin-4-amine], 30 to 50%; with `CC(=O)c1cccc(Nc2cc3c(cn2)nc(C)n3C)c1` [Compound 698, 1-[3-[(1,2-dimethylimidazo[4,5-c]pyridin-6-yl)amino]phenyl]ethanone], 30 to 50%. The same measure, in the same setting: with `COc1cc(-c2cc3c(cn2)nc(NCc2cccc(C)c2)n3C)ccc1O` [Compound 808, 2-methoxy-4-[1-methyl-2-(m-tolylmethylamino)imidazo[4,5-c]pyridin-6-yl]phenol] the figure was 30 to 50%. Regarding `CNc1nc2cnc(-c3ccc(O)c(OC)c3)cc2n1-c1cccc(F)c1` [Compound 888, 4-[1-(3-fluorophenyl)-2-(methylamino)imidazo[4,5-c]pyridin-6-yl]-2-methoxy-phenol], the Emax was 30 to 50%. Regarding `COc1ccc(Nc2nccc3[nH]c(-c4cccc(OC)c4F)nc23)cc1OC` [Compound 469, N-(3,4-dimethoxyphenyl)-2-(2-fluoro-3-methoxy-phenyl)-1H-imidazo[4,5-c]pyridin-4-amine], the Emax is over 100%. For the molecule `c1ccc(-c2nc3c(NCc4ccncc4)nccc3[nH]2)cc1` [Compound 335, 2-phenyl-N-(4-pyridylmethyl)-1H-imidazo[4,5-c]pyridin-4-amine], the Emax lay in the range of 0 to 30%.

Consider `Cn1c(NCC2CC2)nc2cnc(-c3ccc(N4CCNCC4)cc3)cc21` [Compound 597, N-(cyclopropylmethyl)-1-methyl-6-(4-piperazin-1-ylphenyl)imidazo[4,5-c]pyridin-2-amine], for which the Emax was in the range of 50 to 100%. Same read-out and setting: the result for `COc1cc(Nc2cc3c(cn2)nc(NCC2CCCO2)n3C)cc(OC)c1OC` (stereo not shown) [Compound 641, 1-methyl-N2-(tetrahydrofuran-2-ylmethyl)-N6-(3,4,5-trimethoxyphenyl)imidazo[4,5-c]pyridine-2,6-diamine] reads 30 to 50%; that for `CN(C)C(=O)c1ccc(-c2cc3c(Nc4ccccn4)nccc3n2C)cc1` [Compound 219, N,N-di methyl-4-[1-methyl-4-(2-pyridylamino)pyrrolo[3,2-c]pyridin-2-yl]benzamide], 30 to 50%; that for `Cn1c(NCc2ccccc2F)nc2cnc(-c3cccc(Cl)c3)cc21` [Compound 866, 6-(3-chlorophenyl)-N-[(2-fluorophenyl)methyl]-1-methyl-imidazo[4,5-c]pyridin-2-amine], 30 to 50%. The same measure, in the same setting: with `CNc1nc2cnc(Nc3cccc(OC)c3)cc2n1-c1cccc(F)c1` [Compound 680, 1-(3-fluorophenyl)-N6-(3-methoxyphenyl)-N2-methyl-imidazo[4,5-c]pyridine-2,6-diamine] the figure was 50 to 100%; with `COc1ccccc1-c1cc2c(Nc3cccc(NC(C)=O)c3)nccc2[nH]1` [Compound 299, N-[3-[[2-(2-methoxyphenyl)-1H-pyrrolo[3,2-c]pyridin-4-yl]amino]phenyl]acetamide], 50 to 100%; with `Cn1c(NCc2ccccc2F)nc2cnc(-c3cccc(CO)c3)cc21` [Compound 868, [3-[2-[(2-fluorophenyl)methylamino]-1-methyl-imidazo[4,5-c]pyridin-6-yl]phenyl]methanol], 0 to 30%.

In the case of `CNc1nc2cnc(-c3cccc(C(=O)NCCN(C)C)c3)cc2n1-c1cccc(F)c1` [Compound 771, N-(2-dimethylaminoethyl)-3-[1-(3-fluorophenyl)-2-(methylamino)imidazo[4,5-c]pyridin-6-yl]benzamide], the Emax lay in the range of 0 to 30%. Regarding `CN(C)C(=O)c1ccc(-c2cc3cnc(Nc4cccc(S(C)(=O)=O)c4)cc3[nH]2)cc1` [Compound 30, N,N-dimethyl-4-[6-(3-methylsulfonylanilino)-1H-pyrrolo[3,2-c]pyridin-2-yl]benzamide], the Emax was 50 to 100%. Still for that read-out and setting: the result for `COc1cc(OC)cc(-c2cc3c(Nc4cccc(NS(C)(=O)=O)c4)nccc3[nH]2)c1` [Compound 292, N-[3-[[2-(3,5-dimethoxyphenyl)-1H-pyrrolo[3,2-c]pyridin-4-yl]amino]phenyl]methanesulfonamide] reads 30 to 50%; that for `COc1ccc(Nc2nccc3c2cc(-c2ccsc2)n3C)cc1` [Compound 279, N-(4-methoxyphenyl)-1-methyl-2-(3-thienyl)pyrrolo[3,2-c]pyridin-4-amine], 30 to 50%. `COc1ccc(Nc2nccc3c2cc(-c2ccc(C(=O)N(C)C)cc2)n3C)cn1` [Compound 216, 4-[4-[(6-methoxy-3-pyridyl)amino]-1-methyl-pyrrolo[3,2-c]pyridin-2-yl]-N,N-dimethyl-benzamide]: the Emax is 50 to 100%.

For `COc1ccc(Nc2nccc3[nH]c(-c4ccsc4)cc23)c(OC)c1` [Compound 251, N-(2,4-dimethoxyphenyl)-2-(3-thienyl)-1H-pyrrolo[3,2-c]pyridin-4-amine], the Emax fell in the range of 30 to 50%.

With `COc1cccc(Nc2nccc3[nH]c(-c4cccc(OC)c4)nc23)c1` [Compound 368, N,2-bis(3-methoxyphenyl)-1H-imidazo[4,5-c]pyridin-4-amine], the Emax was in the range of 30 to 50%. The same measure, in the same setting: with `CNc1nc2cnc(Nc3ccc(C(=O)N(C)C)cc3)cc2n1Cc1ccccc1` [Compound 537, 4-[[1-benzyl-2-(methylamino)imidazo[4,5-c]pyridin-6-yl]amino]-N,N-dimethyl-benzamide] the figure was 50 to 100%; with `COc1ccccc1-c1cc2c(Nc3cccnc3)nccc2n1C` [Compound 303, 2-(2-methoxyphenyl)-1-methyl-N-(3-pyridyl)pyrrolo[3,2-c]pyridin-4-amine], 30 to 50%. Same read-out and setting: the result for `CNc1nc2cnc(Nc3ccc(C(N)=O)cc3)cc2n1Cc1ccc(OC)c(OC)c1` [Compound 664, 4-[[1-[(3,4-dimethoxyphenyl)methyl]-2-(methylamino)imidazo[4,5-c]pyridin-6-yl]amino]benzamide] reads 50 to 100%; that for `CC(=O)Nc1ccc(-c2cc3c(cn2)ncn3-c2cccc(F)c2)cc1` [Compound 761, N-[4-[1-(3-fluorophenyl)imidazo[4,5-c]pyridin-6-yl]phenyl]acetamide], 0 to 30%. On the same count and under the same terms, the result for `Clc1ccccc1-c1nc2c(NCCc3ccncc3)nccc2[nH]1` [Compound 459, 2-(2-chlorophenyl)-N-[2-(4-pyridyl)ethyl]-1H-imidazo[4,5-c]pyridin-4-amine] reads 0 to 30%; that for `COc1ccc(Nc2nccc3[nH]c(-c4ccccc4)nc23)cc1` [Compound 333, N-(4-methoxyphenyl)-2-phenyl-1H-imidazo[4,5-c]pyridin-4-amine], 50 to 100%. In the case of `CNc1nc2cnc(-c3ccc(C(N)=O)cc3)cc2n1-c1ccccc1` [Compound 786, 4-[2-(methylamino)-1-phenyl-imidazo[4,5-c]pyridin-6-yl]benzamide], the Emax lay in the range of 0 to 30%. Still for that read-out and setting: with `Cn1c(Nc2ccccc2)nc2cnc(Nc3ccc(S(C)(=O)=O)cc3)cc21` [Compound 639, 1-methyl-N6-(4-methylsulfonylphenyl)-N2-phenyl-imidazo[4,5-c]pyridine-2,6-diamine] the figure was 50 to 100%; with `COc1cc(Nc2nccc3[nH]c(-c4ccc5c(c4)OCCO5)nc23)cc(OC)c1OC` [Compound 409, 2-(2,3-dihydro-1,4-benzodioxin-6-yl)-N-(3,4,5-trimethoxyphenyl)-1H-imidazo[4,5-c]pyridin-4-amine], 50 to 100%; with `COc1cccc(-c2cc3c(Nc4cccc(S(C)(=O)=O)c4)nccc3[nH]2)c1` [Compound 311, 2-(3-methoxyphenyl)-N-(3-methylsulfonylphenyl)-1H-pyrrolo[3,2-c]pyridin-4-amine], 50 to 100%. For `c1ccc(-c2cc3c(Nc4cccnc4)nccc3[nH]2)cc1` [Compound 319, 2-phenyl-N-(3-pyridyl)-1H-pyrrolo[3,2-c]pyridin-4-amine], the Emax is 50 to 100%. Same read-out and setting: with `CC(=O)Nc1cccc(Nc2nccc3c2cc(-c2cccnc2)n3C)c1` [Compound 245, N-[3-[[1-methyl-2-(3-pyridyl)pyrrolo[3,2-c]pyridin-4-yl]amino]phenyl]acetamide] the figure was 50 to 100%. On the same count and under the same terms, the result for `CN(C)c1ccc(-c2cc3c(N4CCOCC4)nccc3[nH]2)cc1` [Compound 189, N,N-dimethyl-4-(4-morpholino-1H-pyrrolo[3,2-c]pyridin-2-yl)aniline] reads over 100%; that for `Cn1cc(-c2cc3cnc(Nc4ccccn4)cc3n2C)cn1` [Compound 139, 1-methyl-2-(1-methylpyrazol-4-yl)-N-(2-pyridyl)pyrrolo[3,2-c]pyridin-6-amine], 50 to 100%. On to `CC(=O)Nc1ccc(Nc2cc3c(cn2)nc(NCc2ccccc2)n3C)cc1` [Compound 617, N-[4-[[2-(benzylamino)-1-methyl-imidazo[4,5-c]pyridin-6-yl]amino]phenyl]acetamide], for which the Emax fell in the range of 50 to 100%. Still for that read-out and setting: the result for `COc1cc(Nc2nccc3[nH]c(-c4ccccc4)nc23)cc(OC)c1OC` [Compound 329, 2-phenyl-N-(3,4,5-trimethoxyphenyl)-1H-imidazo[4,5-c]pyridin-4-amine] reads 50 to 100%.

With `COCCNc1nc2cnc(-c3ccc4ccccc4c3)cc2[nH]1` [Compound 677, N-(2-methoxyethyl)-6-(2-naphthyl)-1H-imidazo[4,5-c]pyridin-2-amine], the Emax was 50 to 100%.

The assay is the same for the next values; noted with them: insulin HTRF, supernatant of beta-TC6 cells, incubation with test compound at 37°C for 2, 3, 4h.
As to `Sc1nc2cnccc2n1-c1ccccc1` [Compound 744, 1-phenylimidazo[4,5-c]pyridine-2-thiol], the “Ar (relative activity)” value is recorded as “++ (30 % ≤ Ar < 50 %)”.
